Data published in US10688194B2, “Cell penetrating peptides for intracellular delivery of molecules” (AADIGEN, LLC, priority 2012, dated 2020).
{Cy5} = cyanine 5 fluorescent label

Legend:
Peptide (C4 and C2) = test: Fluorescence titration, VEPEP-3/cargo binding: peptide
Experimental: (§1) Fluorescence experiments were performed on a PTI spectrofluorimeter at 25° C. in a NaCl 154 mM buffer. Intrinsic Trp-fluorescence of VEPEP-3 was excited at 290 nm and emission spectrum was recorded between 310 and 400 nm, with a spectral band-pass of 2 and 8 nm for excitation and emission, respectively. FITC-fluorescence of labelled-peptide was excited at 492 nm and emission recorded between 500 and 580 nm. For VEPEP-3/peptide interaction, 0.5 μM of FITC-labelled peptide was titrated by increasing concentrations of VEPEP-3. All measurements were corrected for the dilution and curve fitting were performed by using Grafit software (Erithacus).
(§2) VEPEP-3 peptide form stable complexes with peptides and proteins. The binding of cargos to VEPEP-3 was monitored by fluorescence spectroscopy using the […] intrinsic Trp groups of VEPEP-3 (3 to 5 Trp-residues) and extrinsic fluorescently labelled cargoes (using Cy3, Cy5 or FITC). Curve fitting reveal that VEPEP-3 strongly binds the different cargoes with dissociation constant in the nanomolar range (examples with VEPEP-3a, VEPEP-3C, and VEPEP-3g and three different cargoes are reported in FIGS. 1A-1C, all the data are reported in Table 1).

Cyclic peptide (PC4) = test: Fluorescence titration, VEPEP-3/cargo binding: cyclic peptide; conditions: cargo: Cyclic peptide (PC4)
Experimental: as §1, §2

protein (GFP & Nanobody) = test: Fluorescence titration, VEPEP-3/cargo binding: protein; conditions: cargo: protein (GFP & Nanobody)
Experimental: as §1, §2

[1] = Fluorescence titration, VEPEP-3/cargo binding: small hydrophobic molecule; conditions: cargo: Doxorubicine
Experimental: as §1
(§3) VEPEP-3 peptides also form stable particles with small aromatic molecules including Daunomycin, Paclitaxel, doxorubicin, porphyrin and charged molecules including nucleotide, nucleoside and peptide-analog of nucleic acids or fluorescent dyes (FIGS. 1A-1C). The dissociation constant for small hydrophobic molecule ranges between 0.05 to 2 μM, depending on the nature of the dyes and of the peptides.

PNA (15 mer-PNA) = test: Fluorescence titration, VEPEP-3/cargo binding: PNA; conditions: cargo: 15 mer-PNA
Experimental: as §1, §3

[2] = tested on: Hela, MCF7, HEK-2, HS-68, and U2OS cells; test: Cell cycle progression, controls; format: cell-based
Cyclin B1 = test: VEPEP-3 mediated delivery of antisense PNA, Cyclin B1 protein level; format: cell-based; conditions: different cultured cells
Source text: VEPEP-3 peptides have been used for the delivery of nucleic acid analogues (PNA and morpholino) into different cell lines, including primary cell lines and challenging cell lines. […] We have applied VEPEP-3 strategy for the delivery of PNA antisense targeting Cyclin B1 as previously described (Morris et al, 2007).

Substance: X1KWFERWFREWPRKRR [VEPEP-3a]
- Binding, peptide (Peptide (C4 and C2)): yes
- Kd (Peptide (C4 and C2)): 10 to 20 nM
- Binding, Cyclic peptide (Cyclic peptide (PC4)): yes
- Binding, Protein (protein (GFP & Nanobody)): Yes
- Kd (protein (GFP & Nanobody)): 1000 nM
- Binding, SHM [1]: Yes
- Kd ([1]; read-out: Kd, SHM): 1000 nM
- Binding, PNA (PNA (15 mer-PNA)): Yes
- Kd (PNA (15 mer-PNA)): 100 nM
- effect on cell cycle progression ([2]; carrier alone (200 μM)): no effect

Substance: VTLMEAKKQVLT (HELM PEPTIDE1{[ac].V.T.L.M.E.A.K.K.Q.V.L.T.[SCCN[*:1]]}$$$$V2.0; SMILES CSCC[C@H](NC(=O)[C@H](CC(C)C)NC(=O)[C@@H](NC(=O)[C@@H](NC(C)=O)C(C)C)[C@@H](C)O)C(=O)N[C@@H](CCC(=O)O)C(=O)N[C@@H](C)C(=O)N[C@@H](CCCCN)C(=O)N[C@@H](CCCCN)C(=O)N[C@@H](CCC(N)=O)C(=O)N[C@H](C(=O)N[C@@H](CC(C)C)C(=O)N[C@H](C(=O)NCCS)[C@@H](C)O)C(C)C) [scrambled C2, reference compound]
- effect on cell cycle progression ([2]; 500 nM, complexed with VEPEP-3a at a 20/1 ratio): no effect

Substance: TGC CAT CGG GCT TGG AGG-CY5 (antisense TGCCATCGGGCTTGGAGG; 3' {Cy5}, sugars by position and backbone not given here; further chemistry not fully specified) [PNA (Cyclin B1)]
- downregulation of Cyclin B1 protein level (Cyclin B1): higher than 70%
